SMILES strings stand for the structures.

The target in the test is T1, human ACC2 (Homo sapiens, UniProt O00763).
T1 construct: made in house; host or cells: insect cells, baculoviral expression system
T1 sequence (O00763 129-2458 limits assumed): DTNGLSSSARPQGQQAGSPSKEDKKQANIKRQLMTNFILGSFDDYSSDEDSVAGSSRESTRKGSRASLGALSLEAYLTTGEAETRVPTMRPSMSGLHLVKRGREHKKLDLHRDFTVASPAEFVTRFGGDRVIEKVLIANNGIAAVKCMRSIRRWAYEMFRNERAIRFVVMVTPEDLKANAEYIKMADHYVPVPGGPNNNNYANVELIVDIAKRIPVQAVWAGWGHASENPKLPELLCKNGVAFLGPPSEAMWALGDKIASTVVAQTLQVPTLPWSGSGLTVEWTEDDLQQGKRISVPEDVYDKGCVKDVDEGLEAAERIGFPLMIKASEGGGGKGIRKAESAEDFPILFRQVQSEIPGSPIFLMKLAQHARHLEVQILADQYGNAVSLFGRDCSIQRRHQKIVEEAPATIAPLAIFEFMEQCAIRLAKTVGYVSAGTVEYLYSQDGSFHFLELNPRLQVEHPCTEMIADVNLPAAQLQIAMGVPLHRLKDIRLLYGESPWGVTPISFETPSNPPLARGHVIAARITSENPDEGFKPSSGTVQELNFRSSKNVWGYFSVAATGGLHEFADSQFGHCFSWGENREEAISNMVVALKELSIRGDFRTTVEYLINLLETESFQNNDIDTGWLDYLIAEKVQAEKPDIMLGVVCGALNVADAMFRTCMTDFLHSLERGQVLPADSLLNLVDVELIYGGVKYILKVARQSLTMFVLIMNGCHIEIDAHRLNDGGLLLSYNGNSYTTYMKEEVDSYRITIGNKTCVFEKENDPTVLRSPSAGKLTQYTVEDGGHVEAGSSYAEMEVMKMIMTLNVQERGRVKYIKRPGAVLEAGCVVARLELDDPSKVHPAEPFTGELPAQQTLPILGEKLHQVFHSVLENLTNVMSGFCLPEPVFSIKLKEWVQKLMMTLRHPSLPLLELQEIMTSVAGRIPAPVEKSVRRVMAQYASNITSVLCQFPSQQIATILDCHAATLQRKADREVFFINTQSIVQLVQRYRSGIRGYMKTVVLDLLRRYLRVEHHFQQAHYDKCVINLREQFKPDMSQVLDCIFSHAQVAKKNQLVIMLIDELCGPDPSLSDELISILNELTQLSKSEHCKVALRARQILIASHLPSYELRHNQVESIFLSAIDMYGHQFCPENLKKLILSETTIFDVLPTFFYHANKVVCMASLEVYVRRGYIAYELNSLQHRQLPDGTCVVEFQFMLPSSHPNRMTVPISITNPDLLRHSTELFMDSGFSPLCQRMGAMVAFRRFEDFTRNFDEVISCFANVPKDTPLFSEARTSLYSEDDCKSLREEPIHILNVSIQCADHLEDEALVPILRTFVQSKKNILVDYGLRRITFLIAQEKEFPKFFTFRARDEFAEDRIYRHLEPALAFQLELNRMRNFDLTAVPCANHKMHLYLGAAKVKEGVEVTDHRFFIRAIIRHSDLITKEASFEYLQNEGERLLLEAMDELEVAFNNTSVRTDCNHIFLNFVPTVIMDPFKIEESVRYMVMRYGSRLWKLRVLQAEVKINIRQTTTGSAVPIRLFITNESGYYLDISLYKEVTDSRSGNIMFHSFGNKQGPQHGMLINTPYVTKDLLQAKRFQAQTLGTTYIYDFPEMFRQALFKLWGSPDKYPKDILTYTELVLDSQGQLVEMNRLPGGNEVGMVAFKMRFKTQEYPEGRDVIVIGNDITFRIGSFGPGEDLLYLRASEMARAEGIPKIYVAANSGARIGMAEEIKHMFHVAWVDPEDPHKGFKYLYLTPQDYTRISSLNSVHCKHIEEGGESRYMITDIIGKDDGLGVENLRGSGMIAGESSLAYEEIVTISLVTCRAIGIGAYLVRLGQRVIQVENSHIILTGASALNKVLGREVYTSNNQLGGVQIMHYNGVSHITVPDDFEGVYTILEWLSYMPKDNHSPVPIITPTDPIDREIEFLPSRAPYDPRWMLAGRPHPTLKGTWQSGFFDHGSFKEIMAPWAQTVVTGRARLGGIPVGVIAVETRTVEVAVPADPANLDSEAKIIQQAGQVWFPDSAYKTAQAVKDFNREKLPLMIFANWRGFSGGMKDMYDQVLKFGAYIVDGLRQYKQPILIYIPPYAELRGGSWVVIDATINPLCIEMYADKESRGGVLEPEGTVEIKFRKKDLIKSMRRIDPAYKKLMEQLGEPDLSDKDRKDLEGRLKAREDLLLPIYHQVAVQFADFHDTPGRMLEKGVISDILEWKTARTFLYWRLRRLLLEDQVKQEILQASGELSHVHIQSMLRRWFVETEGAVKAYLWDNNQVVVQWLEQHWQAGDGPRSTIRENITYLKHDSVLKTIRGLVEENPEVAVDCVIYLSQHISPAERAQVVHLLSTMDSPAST
In words: ACC2 assay, spectrophotometric 384 well assay (NADH-linked, coupled lactate dehydrogenase/pyruvate kinase). It counts as biochemical. To be noted: hACC2 construct lacking the 128 N-terminal amino acids; 25° C., 340 nm, 15 minutes. The protocol: Spectrophotometric 384 Well Assay
Malonyl CoA formation by acetyl CoA carboxylases is stoichometrically linked to the consumption of ATP. ACC2 activity is measured in a NADH-linked kinetic method measuring ADP generated during the ACC reaction using a coupled lactate dehydrogenase/pyruvate kinase reaction.
For biological testing, a human ACC2 construct which lacks the 128 amino acids at the N-terminus for increased solubility (nt 385-6966 in Genbank entry AJ575592) is cloned. The protein is then expressed in insect cells using a baculoviral expression system. Protein purification is performed by anion exchange.
All compounds are dissolved in dimethyl sulfoxide (DMSO) to a concentration of 10 mM.
Assay reactions are then carried out in 384-well plates, with hACC2 in an appropriate dilution and at final assay concentrations (f.c.) of 100 mM Tris (pH 7.5), 10 mM trisodium citrate, 25 mM KHCO3, 10 mM MgCl2, 0.5 mg/mL BSA, 3.75 mM reduced L-glutathione, 15 U/mL lactate dehydrogenase, 0.5 mM phosphoenolpyruvate, 15 U/mL pyruvate kinase, compounds at different concentrations at final DMSO concentrations of 1%.
The enzymatic reaction is then started by addition of a mixture of NADH, acetyl Coenzyme A (both 200 μM f.c.) and ATP (500 uM f.c.). The decrease of the optical density (slope S) is then determined at 25° C. at a wavelength of 340 nm over 15 minutes in a spectrophotometric reader.
Each assay microtiter plate contains wells with vehicle instead of compound as controls for the non-inhibited enzyme (100% CTL; ‘HIGH’) and wells without acetyl-CoA as controls for non-specific NADH degradation (0% CTL; ‘LOW’). The slope S is used for calculation of % CTL=(S(compound)−S(‘LOW’))/(S(‘HIGH’)—S(‘LOW’))*100. Compounds will give values between 100% CTL (no inhibition) and 0% CTL (complete inhibition).
For IC50 value determination, the sample slope in the presence of the test compound after subtraction of the low controls (S(compound)−S(‘LOW’)) are used.
An IC50 value is derived from the compound slopes at different dosages after subtraction of the low controls (S(compound)−S(‘LOW’)) by non-linear regression curve fitting (equation y=(A+((B−A)/(1+((C/x)^D))))).
In the case of `CCCCOc1ccc(C#Cc2ccc(C(C)C(=O)NCC)cc2)nn1` (centres unmarked) [Example 7.37], half-maximal inhibition (IC50) was put at 3200 nM. In other words, the single-digit micromolar range.
The figure for `CCNC(=O)C(C)c1ccc(C#Cc2ccc(OCC3CCOCC3)cc2)cc1` (centres unmarked) [Example 5.13] is 890 nM.
Turning to `CCNC(=O)C(C)c1ccc(C#Cc2cnc(N3CC4CCCC4C3)nc2)cc1` (centres unmarked) [Example 2.11], 270 nM corresponded to half-maximal inhibition (IC50). This IC50 is about 3.3-fold lower than that of the compound before.
Under `CCNC(=O)Cc1ccc(C#Cc2ccc(OCC)cc2)cc1` [Example 1.22] stands 3600 nM; under `CCCOc1ccc(C#Cc2ccc(C(C)C(=O)NCC)cc2)c(C#N)c1` (centres unmarked) [Example 7.39], 1200 nM.
Under `CCNC(=O)C(C)c1ccc(C#Cc2ccc3cccnc3c2)cc1` (centres unmarked) [Example 7.8] stands 2500 nM; under `CCCOc1ccc(C#Cc2ccc(C(C)C(=O)NCC)cc2)c(C)c1` (centres unmarked) [Example 7.42], 90 nM; under `CCNC(=O)C(C)c1ccc(C#Cc2ccc(OCCn3cccc3)cc2)cc1` (centres unmarked) [Example 5.7], 170 nM.
`CCNC(=O)C(C)c1ccc(C#Cc2cnc(NC(C)C)nc2)cc1` (centres unmarked) [Example 2.1, N-Ethyl-2-[4-(2-isopropylamino-pyrimidin-5-ylethynyl)-phenyl]-propionamide] yielded an IC50 of 690 nM.
Under `CCNC(=O)C(C)c1ccc(C#Cc2ccc(OCC(C)F)cc2)cc1` (centres unmarked) [Example 5.19] stands 250 nM.
Compound `CCOc1ccc(C#Cc2ccc(C(C)C(=O)Nc3cncnc3)cc2)cc1` (centres unmarked) [Example 6.5] showed an IC50 of 60 nM. Against the preceding compound, the IC50 is about 4.2-fold lower.

Source of the values: patent publication US8877754B2, “Compounds, pharmaceutical compositions and uses thereof” (Boehringer Ingelheim International GmbH, priority 2010, dated 2014).
